Where a name gives a salt, the structure may show the parent alone.
melting point	Compound
273 to 276 °C	COc1ccccc1S(=O)(=O)Nc1cncc(-c2ccc(-c3ccc4c(c3)CN(C)C4=O)s2)c1 [Compound 37, 2-Methoxy-N-(5-(5-(2-methyl-1-oxoisoindolin-5-yl)thiophen-2-yl)pyridin-3-yl)benzenesulfonamide]
209 to 212 °C	COC(=O)c1ccccc1S(=O)(=O)Nc1cncc(-c2ccc(-c3ccc4c(c3)CN(C)C4=O)s2)c1 [Compound 51, Methyl 2-(N-(5-(5-(2-methyl-1-oxoisoindolin-5-yl)thiophen-2-yl)pyridin-3-yl)sulfamoyl)benzoate]
282 to 284 °C	CN1Cc2cc(-c3ccc(-c4cncc(NS(=O)(=O)c5ccc(C(F)(F)F)cc5)c4)s3)ccc2C1=O [Compound 46, N-(5-(5-(2-Methyl-1-oxoisoindolin-5-yl)thiophen-2-yl)pyridin-3-yl)-4-(trifluoromethyl)benzenesulfonamide]
235 to 239 °C	CN1Cc2cc(-c3ccc(-c4ccnc(NS(=O)(=O)c5ccc(F)cc5F)c4)s3)ccc2C1=O [Compound 5, 2,4-Difluoro-N-(4-(5-(2-methyl-1-oxoisoindolin-5-yl)thiophen-2-yl)pyridin-2-yl)benzenesulfonamide]
272 to 274 °C	CN1Cc2cc(-c3ccc(-c4cncc(NS(=O)(=O)c5ccc(F)cc5)c4)s3)ccc2C1=O [Compound 24, 4-Fluoro-N-(5-(5-(2-methyl-1-oxoisoindolin-5-yl)thiophen-2-yl)pyridin-3-yl)benzenesulfonamide]
278 to 280 °C	COc1cccc(S(=O)(=O)Nc2cncc(-c3ccc(-c4ccc5c(c4)CN(C)C5=O)s3)c2)c1 [Compound 38, 3-Methoxy-N-(5-(5-(2-methyl-1-oxoisoindolin-5-yl)thiophen-2-yl)pyridin-3-yl)benzenesulfonamide]
276 to 279 °C	CN1Cc2cc(-c3ccc(-c4cncc(NS(=O)(=O)c5ccc(Br)cc5)c4)s3)ccc2C1=O [Compound 34, 4-Bromo-N-(5-(5-(2-methyl-1-oxoisoindolin-5-yl)thiophen-2-yl)pyridin-3-yl)benzenesulfonamide]
303 to 307 °C	CN1Cc2cc(-c3ccc(-c4cncc(NS(=O)(=O)c5cccc(Br)c5)c4)s3)ccc2C1=O [Compound 33, 3-Bromo-N-(5-(5-(2-methyl-1-oxoisoindolin-5-yl)thiophen-2-yl)pyridin-3-yl)benzenesulfonamide]
289 to 293 °C	CN1Cc2cc(-c3ccc(-c4cncc(NS(=O)(=O)c5ccccc5Br)c4)s3)ccc2C1=O [Compound 32, 2-Bromo-N-(5-(5-(2-methyl-1-oxoisoindolin-5-yl)thiophen-2-yl)pyridin-3-yl)benzenesulfonamide]
293 to 296 °C	CN1Cc2cc(-c3ccc(-c4cncc(NS(=O)(=O)c5ccc(OC(F)(F)F)cc5)c4)s3)ccc2C1=O [Compound 43, N-(5-(5-(2-Methyl-1-oxoisoindolin-5-yl)thiophen-2-yl)pyridin-3-yl)-4-(trifluoromethoxy)benzenesulfonamide]
269 to 272 °C	CN1Cc2cc(-c3ccc(-c4cncc(NS(=O)(=O)c5cccc(Cl)c5F)c4)s3)ccc2C1=O [Compound 60, 3-Chloro-2-fluoro-N-(5-(5-(2-methyl-1-oxoisoindolin-5-yl)thiophen-2-yl)pyridin-3-yl)benzenesulfonamide]
269 to 272 °C	CN1Cc2cc(-c3ccc(-c4cncc(NS(=O)(=O)c5ccccc5S(C)(=O)=O)c4)s3)ccc2C1=O [Compound 56, N-(5-(5-(2-Methyl-1-oxoisoindolin-5-yl)thiophen-2-yl)pyridin-3-yl)-2-(methylsulfonyl)benzenesulfonamide]
265 to 268 °C	Cc1cc(C)n(-c2ccc(S(=O)(=O)Nc3cncc(-c4ccc(-c5ccc6c(c5)CN(C)C6=O)s4)c3)cc2)n1 [Compound 72, 4-(3,5-Dimethyl-1H-pyrazol-1-yl)-N-(5-(5-(2-methyl-1-oxoisoindolin-5-yl)thiophen-2-yl)pyridin-3-yl)benzenesulfonamide]
> 300 °C	CN1Cc2cc(-c3ccc(-c4cncc(NS(=O)(=O)c5ccc(S(C)(=O)=O)cc5)c4)s3)ccc2C1=O (as salt: sodium) [Compound 57, Sodium (5-(5-(2-methyl-1-oxoisoindolin-5-yl)thiophen-2-yl)pyridin-3-yl)((4-(methylsulfonyl)phenyl)sulfonyl)amide]
> 310 °C	CN1Cc2cc(-c3ccc(-c4cncc(NS(=O)(=O)c5ccccc5C#N)c4)s3)ccc2C1=O [Compound 48, 2-Cyano-N-(5-(5-(2-methyl-1-oxoisoindolin-5-yl)thiophen-2-yl)pyridin-3-yl)benzenesulfonamide]
240 to 244 °C	COc1ccc(S(=O)(=O)Nc2cncc(-c3ccc(-c4ccc5c(c4)CN(C)C5=O)s3)c2)cc1OC (as salt: sodium) [Compound 40, 3,4-Dimethoxy-N-(5-(5-(2-methyl-1-oxoisoindolin-5-yl)thiophen-2-yl)pyridin-3-yl)benzenesulfonamide, sodium salt]
280 to 283 °C	Cc1cc(F)ccc1S(=O)(=O)Nc1cncc(-c2ccc(-c3ccc4c(c3)CN(C)C4=O)s2)c1 [Compound 61, 4-Fluoro-2-methyl-N-(5-(5-(2-methyl-1-oxoisoindolin-5-yl)thiophen-2-yl)pyridin-3-yl) benzenesulphonamide]

melting point	Compound
299 to 303 °C	CN1Cc2cc(-c3ccc(-c4cncc(NS(=O)(=O)c5ccccc5Cl)c4)s3)ccc2C1=O [Compound 27, 2-Chloro-N-(5-(5-(2-methyl-1-oxoisoindolin-5-yl)thiophen-2-yl)pyridin-3-yl)benzenesulfonamide]
276 to 279 °C	CN1Cc2cc(-c3ccc(-c4cncc(NS(=O)(=O)c5ccc(Br)cc5Br)c4)s3)ccc2C1=O [Compound 35, 2,4-Dibromo-N-(5-(5-(2-methyl-1-oxoisoindolin-5-yl)thiophen-2-yl)pyridin-3-yl)benzenesulfonamides]
250 to 254 °C	COC(=O)c1cccc(S(=O)(=O)Nc2cncc(-c3ccc(-c4ccc5c(c4)CN(C)C5=O)s3)c2)c1 [Compound 52, Methyl 3-(N-(5-(5-(2-methyl-1-oxoisoindolin-5-yl)thiophen-2-yl)pyridin-3-yl)sulfamoyl)benzoate]
289 to 292 °C	CN1Cc2cc(-c3ccc(-c4cncc(NS(=O)(=O)c5ccccc5F)c4)s3)ccc2C1=O [Compound 22, 2-Fluoro-N-(5-(5-(2-methyl-1-oxoisoindolin-5-yl)thiophen-2-yl)pyridin-3-yl)benzenesulfonamide]
274 to 277 °C	Cc1ccc(NS(=O)(=O)c2ccccn2)cc1-c1ccc(-c2ccc3c(c2)CN(C)C3=O)s1 [Compound 15, N-(4-Methyl-3-(5-(2-methyl-1-oxoisoindolin-5-yl)thiophen-2-yl)phenyl)pyridine-2-sulfonamide]
282 to 285 °C	CN1Cc2cc(-c3ccc(-c4cncc(NS(=O)(=O)c5ccc(F)c(F)c5)c4)s3)ccc2C1=O [Compound 25, 3,4-Difluoro-N-(5-(5-(2-methyl-1-oxoisoindolin-5-yl)thiophen-2-yl)pyridin-3-yl)benzenesulfonamide]
322 to 325 °C	COc1ccc(-c2ccc(-c3ccc4c(c3)CN(C)C4=O)s2)cc1S(=O)(=O)Nc1ccccn1 (as salt: sodium) [Compound 19, Sodium ((2-methoxy-5-(5-(2-methyl-1-oxoisoindolin-5-yl)thiophen-2-yl)phenyl)sulfonyl)(pyridin-2-yl)amide]
272 to 275 °C	CN1Cc2cc(-c3ccc(-c4cncc(NS(=O)(=O)c5ccccn5)c4)s3)ccc2C1=O [Compound 66, N-(5-(5-(2-Methyl-1-oxoisoindolin-5-yl)thiophen-2-yl)pyridin-3-yl)pyridine-2-sulfonamide]
221 to 224 °C	CN1Cc2cc(-c3ccc(-c4cncc(S(=O)(=O)Nc5ccc(F)cc5F)c4)s3)ccc2C1=O [Compound 7, N-(2,4-Difluorophenyl)-5-(5-(2-methyl-1-oxoisoindolin-5-yl)thiophen-2-yl)pyridine-3-sulphonamide]
260 to 262 °C	CN1Cc2cc(-c3ccc(-c4cccc(NS(=O)(=O)c5ccc(F)cc5F)c4)s3)ccc2C1=O [Compound 9, 2,4-Difluoro-N-(3-(5-(2-methyl-1-oxoisoindolin-5-yl)thiophen-2-yl)phenyl)benzene sulphonamide]
282 to 285 °C	CN1Cc2cc(-c3ccc(-c4cncc(NS(=O)(=O)c5ccc(Cl)cc5Cl)c4)s3)ccc2C1=O [Compound 31, 2,4-Dichloro-N-(5-(5-(2-methyl-1-oxoisoindolin-5-yl)thiophen-2-yl)pyridin-3-yl)benzenesulfonamide]
281 to 284 °C	CN1Cc2cc(-c3ccc(-c4cncc(NS(=O)(=O)c5ccc(Cl)cc5)c4)s3)ccc2C1=O [Compound 29, 4-Chloro-N-(5-(5-(2-methyl-1-oxoisoindolin-5-yl)thiophen-2-yl)pyridin-3-yl)benzenesulfonamide]
269 to 272 °C	COC(=O)c1ccc(S(=O)(=O)Nc2cncc(-c3ccc(-c4ccc5c(c4)CN(C)C5=O)s3)c2)cc1 [Compound 53, Methyl 4-(N-(5-(5-(2-methyl-1-oxoisoindolin-5-yl)thiophen-2-yl)pyridin-3-yl)sulfamoyl)benzoate]
200 to 201 °C	CN1Cc2cc(-c3ccc(-c4ccc(OC(F)(F)F)c(NS(=O)(=O)c5ccccn5)c4)s3)ccc2C1=O [Compound 18, N-(5-(5-(2-Methyl-1-oxoisoindolin-5-yl)thiophen-2-yl)-2-(trifluoromethoxy)phenyl)pyridine-2-sulfonamide]
280 to 283 °C	CN1Cc2cc(-c3ccc(-c4cncc(NS(=O)(=O)c5cc(Br)cc(C(F)(F)F)c5)c4)s3)ccc2C1=O [Compound 65, 3-Bromo-N-(5-(5-(2-methyl-1-oxoisoindolin-5-yl)thiophen-2-yl)pyridin-3-yl)-5-(trifluoromethyl)benzenesulphonamide]
245 to 249 °C	CN1Cc2cc(-c3ccc(-c4cncc(NS(=O)(=O)c5ccc(-c6ccno6)s5)c4)s3)ccc2C1=O [Compound 71, 5-(Isoxazol-5-yl)-N-(5-(5-(2-methyl-1-oxoisoindolin-5-yl)thiophen-2-yl)pyridin-3-yl)thiophene-2-sulfonamide]

— article PMC5500991, “Substituted arylsulphonamides as inhibitors of perforin-mediated lysis” (European Journal of Medicinal Chemistry, 2017)
